Like-named read-outs stand apart in the source and are kept apart here.
Legend:
solid tumors = conditions: cited from earlier work
[1] = cited from earlier work
colon carcinoma model = colon carcinoma model ref 34; cited from earlier work
[2] = cited from earlier work; remark: listed apart in the source
[3] = human, in vivo, po, 70 mg/m2
[4] = single-agent sorafenib, same dose regimen ref 17; cited from earlier work
clinical = conditions: human, plasma, oral
[5] = Plasma pharmacokinetics of sorafenib given with irinotecan; conditions: pediatric patients, combination therapy
[6] = single agent, pediatric phase 1 trials ref 26, 27, 44

CCc1c2c(nc3ccc(OC(=O)N4CCC(N5CCCCC5)CC4)cc13)-c1cc3c(c(=O)n1C2)COC(=O)[C@]3(O)CC [Irinotecan]
mixed response and/or SD rates (solid tumors; [6]): 20–26% | partial response rates (solid tumors; [6]): 0 to 6% | AUC(0-inf) (human, plasma, po, 70 mg/m2): 594 ± 299 ng·h/mL | CMAX (human, plasma, po, 70 mg/m2): 93.9 ± 60.8 ng/mL | Tmax (human, plasma, po, 70 mg/m2): 1.97 ± 0.85 h | mean dose-normalized CMAX (CMAX/D) (oral irinotecan 70 mg/m^2 with sorafenib, range 0.18–3.49): 1.14 ng/mL/mg | dose-normalized AUCINF (AUCINF/D) (oral irinotecan 70 mg/m^2 with sorafenib, range 1.7–19.5): 7.1 ng·h/mL/mg | MTD of oral irinotecan with temozolomide and vincristine ([1]; 5 days for 2 weeks with temozolomide 100 mg/m^2/day ref 33): 35 mg/m^2/daily | MTD, short course oral irinotecan ([1]; daily for 5 days every 21 days, solid tumors, patients < 65 years of age ref 31): 65 mg/m^2/dose | MTD, protracted course of oral irinotecan ([1]; daily × 5 days for 2 weeks, pediatric patients, with cefixime ref 30): 60 mg/m^2/dose | MTD of oral irinotecan with temozolomide and vincristine ([1]; daily × 5 days with temozolomide 150 mg/m^2/day ref 33): 90 mg/m^2/daily | MTD, protracted course of oral irinotecan with temozolomide ([1]; patients with neuroblastoma ref 32): 60 mg/m^2/day | growth delay (colon carcinoma model): 71% | absolute oral bioavailability ([2]; irinotecan solution ref 47): 17%

CCc1c2c(nc3ccc(O)cc13)-c1cc3c(c(=O)n1C2)COC(=O)[C@]3(O)CC [SN38, 7-ethyl-10-hydroxy camptothecin]
mean extent of metabolic conversion from SN38 to SN38-G (oral irinotecan 70 mg/m^2 with sorafenib, pediatric patients): 3.73 | extent of metabolic conversion from SN38 to SN38-G ([2]; adults ref 45, 46): 6.9–13.4 | CMAX ([2]; oral irinotecan 60 mg/m^2 in adults ref 47): 7.4 ± 4.4 ng/mL | AUCINF ([2]; oral irinotecan study in adults ref 47): 58.7 ± 31 ng·h/mL | t1/2 ([2]; oral study in adults ref 47): 11.9 h | extent of metabolic conversion from SN38 to SN38-G ([2]; other pediatric reports ref 48, 49): 1.6–4.1 | t1/2 ([2]; reported pediatric ranges ref 48): 7.3 to 18.5 h

CCc1c2c(nc3ccc(O[C@@H]4O[C@H](C(=O)O)[C@@H](O)[C@H](O)[C@H]4O)cc13)-c1cc3c(c(=O)n1C2)COC(=O)[C@]3(O)CC [SN38-G]
AUCINF [3]: 62.1 ± 35.4 (57.0%) hr•ng/mL | CMAX [3]: 5.50 ± 3.38 (61.4%) ng/mL | Tmax [3]: 3.17 ± 1.09 (34.2%) hr | AUCINF ([2]; human, in vivo): 30.8 to 153 ng·h/mL | CMAX ([2]; in vivo, po, 60 mg/m2): 21.7 ± 15.2 ng/mL | AUCINF ([2]; in vivo, po): 356 ± 348 ng·h/mL

CNC(=O)c1cc(Oc2ccc(NC(=O)Nc3ccc(Cl)c(C(F)(F)F)c3)cc2)ccn1 [Sorafenib]
prolonged SD (solid tumors; phase 2, Wilms tumor, 2 of 10 patients ref 18): 20% | responses (solid tumors; phase 2, cohort with rhabdomyosarcoma ref 18): no responses | Tmax [4]: 4.98 h | mean CMAX/D [4]: 8.33 ng/mL/mg | growth delay (colon carcinoma model): 100% | Tmax (clinical): 6.4 h | age-dependent difference in AUC [5]: no significant age-dependent difference

Reference: article PMC10197018 (Pediatric blood & cancer, 2021)
